Assays:
[1] = system: capillary-associated cells (mostly endothelial cells) in neuroendocrine (pulmonary carcinoid) tumor microclusters; assay: In situ microcapillary viability assay (ISMCVA), fast green/H&E dye exclusion on tumor microclusters; assay type: cell-based, human; conditions: microclusters cultured for 96 hours in presence of bevacizumab; FIGS. 3B and 4B
Method: (§1) Solid tumors are minced to pieces smaller than 1 mm (small enough to be aspirated into a standard disposable 10 ml pipette) with high quality curved surgical scissors. Medium in which said tumors may have been transported is reserved, along with the supernatant from the tissue mince. Scissor-minced tumor pieces are digested with collagenase/DNase in RPMI-1640 containing antibiotics and 10% fetal calf serum. Specimens are digested in 50 ml disposable polypropylene centrifuge tubes, assisted by gentle mixing with plastic-coated, magnetic stirring bars over a stirring plate. Specimens are thusly mixed until complete gross digestion has taken place—typically about 2-3 hours for a 1-3 gram specimen. […]
(§2) Viable microaggregates are enriched from medium containing a mixture of microclusters that exist in the minced, digested tissue along with single cells, normal cells, red blood cells, dead cells, and debris by means of “quickspins.” Quickspins consist of repeated very brief centrifugations at 50-500×g, in which the centrifuge tube is first mixed by moderate hand-shaking, placed in a standard, room temperature, preparatory centrifuge, and then accelerated to the desired speed (determined for each centrifuge by empiric trials) and then immediately turned off once the centrifuge has reached the desired speed and then allowed to coast to a stop. […]

[2] = system: tumor cells in neuroendocrine (pulmonary carcinoid) tumor microclusters; assay: as above; assay type: cell-based, human; conditions: microclusters cultured for 96 hours in presence of bevacizumab; FIGS. 3B and 4B
Method: as §1, §2

bevacizumab
viability of capillary-associated cells (fast green staining) [1]: most capillary-associated cells are dead | viability of tumor cells (fast green / H/E staining) [2]: tumor cells remain viable
